Measurements: ChEMBL document CHEMBL1201862, “PubChem BioAssay data set” (2004)
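Test compounds were applied to cells in 96-well plates for 48 hours at 5 doses. Here, GI50 denotes the concentration required for 50% inhibition of growth.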 Active and inactive are the calls of the source. No stated cut-off is given here; in the data, active = GI50 up to about 1.1 µM and inactive = higher. Starred links: 1 amine or outer side, 2 acyl side, 3 side chain; linkers in the order of their positions; H or OH if unused. Positions of bridges follow the written chain, without caps; N, C: chain ends. Non-standard residues stand in square brackets, D forms with d. Residues, ends and D or L forms follow the SMILES beside them. ξ: configuration not given here. X37 = CC[C@H](C)[C@@H](N[*:1])[C@@H](O)CC(=O)O[C@H](C(=O)[C@H](C)C(=O)[*:2])C(C)C; NMeY = CN[C@@H](Cc1ccc(O)cc1)C(=O)O; dNMeL = CN[C@H](CC(C)C)C(=O)O; ξΔPro = O=C(O)C1C=CCN1

Key:
Test in all cases: inhibition of tumour cell growth, NCI panel, 48 h
SNB-75 = test system: SNB-75
HOP-92 = test system: HOP-92
RXF 393 = test system: RXF 393
OVCAR-8 = test system: OVCAR-8
NCI-H522 = test system: NCI-H522
NCI-H23 = test system: NCI-H23
A549 = test system: A549
SR = test system: SR
COLO 205 = test system: COLO 205
TK-10 = test system: TK-10
HT-29 = test system: HT-29
K562 = test system: K562
HCT-116 = test system: HCT-116
CCRF-CEM = test system: CCRF-CEM
SF-268 = test system: SF-268
KM-20L2 = test system: KM-20L2
M14 = test system: M14
A498 = test system: A498
T47D = test system: T47D
BT-549 = test system: BT-549

Structure (SMILES) | GI50 (SNB-75) | GI50 (HOP-92) | GI50 (RXF 393) | GI50 (OVCAR-8) | GI50 (NCI-H522) | GI50 (NCI-H23) | GI50 (A549) | GI50 (SR) | GI50 (COLO 205) | GI50 (TK-10) | GI50 (HT-29) | GI50 (K562) | GI50 (HCT-116) | GI50 (CCRF-CEM) | GI50 (SF-268) | GI50 (KM-20L2) | GI50 (M14) | GI50 (A498) | GI50 (T47D) | GI50 (BT-549)
Cc1ccc(NCC(=O)N2CC(=O)Nc3ccccc32)cc1 | > 100 µM (inactive) | > 100 µM (inactive) | > 100 µM (inactive) | > 100 µM (inactive) | > 100 µM (inactive) | > 100 µM (inactive) | > 100 µM (inactive) | > 100 µM (inactive) | > 100 µM (inactive) | > 100 µM (inactive) | > 100 µM (inactive) | > 100 µM (inactive) | > 100 µM (inactive) | > 100 µM (inactive) | > 100 µM (inactive) | > 100 µM (inactive) | > 100 µM (inactive) | – | – | –
COC1=CC(=O)C2C(C1=O)C(c1ccc(OC)c(OC)c1)[C@H]2C (stereo partly drawn) | > 100 µM (inactive) | 20 µM (inactive) | 19.7 µM (inactive) | 20.6 µM (inactive) | 12.8 µM (inactive) | 19.9 µM (inactive) | > 100 µM (inactive) | – | 19.1 µM (inactive) | 19 µM (inactive) | 31.8 µM (inactive) | 23.4 µM (inactive) | 18 µM (inactive) | 22.6 µM (inactive) | > 100 µM (inactive) | 68.9 µM (inactive) | 19 µM (inactive) | > 100 µM (inactive) | – | –
C1=CC=C2NCCCCCCC/N=C3/C=CC=CC=C3NCCCCCCC/N=C\2C=C1 | 25.8 µM (inactive) | 33.9 µM (inactive) | 16.9 µM (inactive) | 40.1 µM (inactive) | 52.5 µM (inactive) | 11.9 µM (inactive) | > 100 µM (inactive) | 63.5 µM (inactive) | > 100 µM (inactive) | – | 37.5 µM (inactive) | 30.1 µM (inactive) | 39.1 µM (inactive) | 36.8 µM (inactive) | > 100 µM (inactive) | 30.5 µM (inactive) | 10 µM (inactive) | – | – | –
CCCCCCCCCCCC[N+]12CC[N+](CCN)(CC1)CC2 | 28.2 µM (inactive) | 29.4 µM (inactive) | 5.62 µM (inactive) | > 100 µM (inactive) | 86.5 µM (inactive) | 51.6 µM (inactive) | > 100 µM (inactive) | 26.9 µM (inactive) | 39.3 µM (inactive) | 17.1 µM (inactive) | 67.8 µM (inactive) | 32.1 µM (inactive) | > 100 µM (inactive) | 73.6 µM (inactive) | 37.2 µM (inactive) | 62.4 µM (inactive) | > 100 µM (inactive) | – | – | –
O=C1c2ccccc2C2(O)Nc3cc(O)ccc3C12O (stereo not drawn) | > 100 µM (inactive) | > 100 µM (inactive) | > 100 µM (inactive) | > 100 µM (inactive) | > 100 µM (inactive) | > 100 µM (inactive) | > 100 µM (inactive) | – | > 100 µM (inactive) | > 100 µM (inactive) | > 100 µM (inactive) | > 100 µM (inactive) | > 100 µM (inactive) | > 100 µM (inactive) | > 100 µM (inactive) | > 100 µM (inactive) | > 100 µM (inactive) | > 100 µM (inactive) | – | –
NCCCCCS(=O)(=O)O | > 100 µM (inactive) | – | > 100 µM (inactive) | > 100 µM (inactive) | > 100 µM (inactive) | > 100 µM (inactive) | > 100 µM (inactive) | > 100 µM (inactive) | > 100 µM (inactive) | > 100 µM (inactive) | > 100 µM (inactive) | > 100 µM (inactive) | > 100 µM (inactive) | > 100 µM (inactive) | > 100 µM (inactive) | > 100 µM (inactive) | > 100 µM (inactive) | > 100 µM (inactive) | – | –
Cc1c(CCOC=O)c(=O)[nH]c2nncn12 | > 100 µM (inactive) | > 100 µM (inactive) | > 100 µM (inactive) | > 100 µM (inactive) | > 100 µM (inactive) | > 100 µM (inactive) | > 100 µM (inactive) | > 100 µM (inactive) | > 100 µM (inactive) | > 100 µM (inactive) | > 100 µM (inactive) | > 100 µM (inactive) | > 100 µM (inactive) | > 100 µM (inactive) | > 100 µM (inactive) | – | > 100 µM (inactive) | > 100 µM (inactive) | > 100 µM (inactive) | > 100 µM (inactive)
Cc1cc(/N=N/c2c(O)ccc3ccccc23)ccc1/N=N/c1cccc([N+](C)(C)C)c1 | 4 µM (inactive) | 15.6 µM (inactive) | 16.1 µM (inactive) | 10.1 µM (inactive) | 3.98 µM (inactive) | 13.3 µM (inactive) | 12.1 µM (inactive) | 7.69 µM (inactive) | 2.47 µM (inactive) | 29.5 µM (inactive) | 3.66 µM (inactive) | 13.2 µM (inactive) | 9.82 µM (inactive) | 7.16 µM (inactive) | 10.7 µM (inactive) | – | 13.6 µM (inactive) | 44.7 µM (inactive) | 6.22 µM (inactive) | 3.08 µM (inactive)
Cc1cn(C2CC(O)C(COC(N)=O)O2)c(=O)[nH]c1=O (stereo not drawn) | 71.1 µM (inactive) | > 100 µM (inactive) | > 100 µM (inactive) | > 100 µM (inactive) | > 100 µM (inactive) | > 100 µM (inactive) | > 100 µM (inactive) | > 100 µM (inactive) | > 100 µM (inactive) | > 100 µM (inactive) | > 100 µM (inactive) | > 100 µM (inactive) | > 100 µM (inactive) | > 100 µM (inactive) | > 100 µM (inactive) | – | > 100 µM (inactive) | > 100 µM (inactive) | > 100 µM (inactive) | > 100 µM (inactive)
CCCCCOC(=O)C(=O)Nc1[nH]nnc1C(N)=O | > 100 µM (inactive) | > 100 µM (inactive) | > 100 µM (inactive) | > 100 µM (inactive) | > 100 µM (inactive) | > 100 µM (inactive) | > 100 µM (inactive) | > 100 µM (inactive) | > 100 µM (inactive) | > 100 µM (inactive) | > 100 µM (inactive) | > 100 µM (inactive) | > 100 µM (inactive) | > 100 µM (inactive) | > 100 µM (inactive) | – | > 100 µM (inactive) | > 100 µM (inactive) | > 100 µM (inactive) | > 100 µM (inactive)
C=C1CC(OC)(C(OC)C(=O)N(C)[C@H]2OCO[C@H]3C2O[C@H](C[C@@H](COC)OC)C(C)(C)C3OC)O[C@H](C)[C@@H]1C (stereo partly drawn) | 4.4 µM (inactive) | – | 10.6 µM (inactive) | 8.43 µM (inactive) | 11.5 µM (inactive) | 9.57 µM (inactive) | 16 µM (inactive) | – | 8.97 µM (inactive) | – | 5.77 µM (inactive) | 13.6 µM (inactive) | 9.44 µM (inactive) | 7.71 µM (inactive) | 4.6 µM (inactive) | 13.3 µM (inactive) | – | 12 µM (inactive) | – | –
CC(=O)O[C@H]1CC[C@@]2(C)C(=CC[C@H]3[C@@H]4C[C@H](N5CCN(C)CC5)[C@H](OC(C)=O)[C@@]4(C)CC[C@@H]32)C1 | 24.4 µM (inactive) | 25.4 µM (inactive) | 19.1 µM (inactive) | 15.6 µM (inactive) | 18.8 µM (inactive) | 22.9 µM (inactive) | 18.5 µM (inactive) | 4.68 µM (inactive) | 17.1 µM (inactive) | > 100 µM (inactive) | 3.6 µM (inactive) | 1.91 µM (inactive) | 12.9 µM (inactive) | 3.98 µM (inactive) | 20 µM (inactive) | – | 3.27 µM (inactive) | 20.9 µM (inactive) | 17.8 µM (inactive) | 17.8 µM (inactive)
COc1cc(Cl)cc(O)c(=O)c1OC | 59.2 µM (inactive) | – | 26.9 µM (inactive) | 36.9 µM (inactive) | 21.9 µM (inactive) | 35.1 µM (inactive) | – | 2.2 µM (inactive) | 28.7 µM (inactive) | 44.1 µM (inactive) | 64.3 µM (inactive) | 36.5 µM (inactive) | 35.8 µM (inactive) | 12.7 µM (inactive) | 25.3 µM (inactive) | 37.9 µM (inactive) | 41.8 µM (inactive) | 57.1 µM (inactive) | – | –
N#CCCN(CCC#N)c1ccc(/C=C2\N=C(CN3C(=O)c4ccccc4C3=O)OC2=O)cc1 | > 100 µM (inactive) | – | – | > 100 µM (inactive) | 89.7 µM (inactive) | – | > 100 µM (inactive) | > 100 µM (inactive) | – | – | > 100 µM (inactive) | > 100 µM (inactive) | > 100 µM (inactive) | – | > 100 µM (inactive) | > 100 µM (inactive) | > 100 µM (inactive) | > 100 µM (inactive) | – | –
CC[C@H](C)[C@H]1NC(=O)[C@@H](NC(=O)[C@@H](CC(C)C)N(C)C(=O)C2C=CCN2)[C@@H](C)OC(=O)[C@H](Cc2ccc(OC)cc2)N(C)C(=O)[C@@H]2CCCN2C(=O)[C@H](CC(C)C)NC(=O)[C@@H](C)C(=O)[C@H](C(C)C)OC(=O)C[C@@H]1O (stereo partly drawn) (H-[ξΔPro][dNMeL]T[X37]LP[NMeY](Me); ester 3-C) | < 0.005 µM (active) | < 0.005 µM (active) | < 0.005 µM (active) | < 0.005 µM (active) | < 0.005 µM (active) | < 0.005 µM (active) | < 0.005 µM (active) | < 0.005 µM (active) | < 0.005 µM (active) | < 0.005 µM (active) | < 0.005 µM (active) | < 0.005 µM (active) | < 0.005 µM (active) | < 0.005 µM (active) | < 0.005 µM (active) | – | < 0.005 µM (active) | 0.00594 µM (active) | < 0.005 µM (active) | < 0.005 µM (active)
Cc1ccc(C2CC(c3ccco3)=NN2c2ccccc2)o1 (stereo not drawn) | > 100 µM (inactive) | – | > 100 µM (inactive) | > 100 µM (inactive) | > 100 µM (inactive) | > 100 µM (inactive) | > 100 µM (inactive) | > 100 µM (inactive) | > 100 µM (inactive) | > 100 µM (inactive) | > 100 µM (inactive) | > 100 µM (inactive) | > 100 µM (inactive) | > 100 µM (inactive) | > 100 µM (inactive) | > 100 µM (inactive) | > 100 µM (inactive) | – | – | –
